Series [1] concerns sphingomyleinase activity of mmLDL-stimulated monocytes. In words: Sphingomyelinase activity in mmLDL-stimulated human monocytes. Conditions: compound 13 0.1-0 μm, 30 min pretreatment, then mmLDL 4 hours; average of 5 experiments; values only in FIG. 4. In kind it is cell-based. As to the method: Average values from 5 individual experiments.
90 nM BODIPY-FL-C5 sphingomylein (molecular probes) are dissolved in 200 μl ethanol, then injected into 10 ml PBS containing 0.75 mg/ml BSA. The solution is dialyzed extensively against PBS, the resulting dialyzate is sterile-filtered and diluted 1:1 using RPMI medium. Together with the solution a monolayer of human monocytes' is incubated with 5% CO2 at 37° C. for 4 hours, washed twice with 5 ml PBS, admixed with new medium and then incubated at the corresponding concentrations of compound (13) for 30 minutes. The pretreated cells are treated with slightly modified low-density lipoprotein (mmLDL)^10 for 4 hours and extracted according to Bligh and Dyer^11. The enzyme activity is determined by the ratio of BODIPY-FL-C5—sphingomyelin to BODIPY-FL-C5 ceramide^12.

The subject of series [2] is human monocytes. In words: Antiapoptotic activity in TNFα-treated human monocytes (YOPRO-1 staining). In kind it is cell-based. Conditions: pretreatment 30 min, 0.1 μm, then TNFα 4 hours; average of 5 experiments; values only in FIG. 3. The method, then: In addition, part of the cells are pretreated with compound 13 (30 min., 0.1 μm). The percentage of apoptotic cells is determined in all of the samples by YOPRO-1 staining^10. Average values from 5 experiments.

Series [3] is described as follows: Chemical, acid and redox stability. Format: physicochemical.
The conditions of series [4]: background statement, cited from earlier work.

For the compound `CCCCCCCCCCCCCCCC(=O)N[C@H](CO)C[C@]1(O)CCC=CC1=O` [compound 13, hexadecanoic acid-[1-hydroxymethyl-2-(1-hydroxy-2-oxo-cyclohex-3-enyl)ethyl]amide], in series [1], the “Inhibitory effect on the sphingomyleinase activity” value is on record as “Inhibitory effect”. Further, the “Antiapoptotic activity (percentage of apoptotic cells)” value in series [2] was “Antiapoptotic activity”. For the same compound, in series [3] (epoxide-free analogues, compared with natural scyphostatin), the “Chemical stability (e.g. stability in acidic solutions)” value is “increased chemical stability”. In series [3] (pH values of 2 at 40° C. for a period of several hours), the “Stability at pH 2” value is on record as “stable”.

As to `CC[C@@H](C)/C=C(\C)C[C@@H](C)C[C@@H](C)/C=C/C=C/C=C/C(=O)N[C@H](CO)C[C@@]1(O)C(=O)C=C[C@@H]2O[C@@H]21` [scyphostatin], in series [4] (natural scyphostatin), the “Chemical and metabolic stability” value was “chemically and metabolically very unstable”. Besides, in series [4] (natural substance), the Stability in acid entry was “unstable in acid”.

Values taken from patent publication US6790992B2, “Scyphostatin analogues as SMase inhibitors” (Biofrontera Pharmaceuticals GmbH, priority 2002, dated 2004).
